# From US9221795B2, “Phosphatidylinositol 3-kinase inhibitors” (Gilead Sciences, Inc., priority 2013, dated 2015)
# Columns and labels:
# basophils = assay: Basophil activation in human whole blood (Flow2 CAST kit, CD63 flow cytometry); format: cell-based
# Description: Effect on basophil activation was measured in human whole blood using the Flow2 CAST® kit (Buhlmann Laboratories AG, Baselstrasse, Switzerland) following the protocol provided by the manufacturer with minor modifications. Human whole blood was collected into K2-EDTA venipuncture tubes. Whole blood samples were treated with either DMSO (0.3% final) or a serial dilution of compounds in DMSO for 60 minutes at 37° C. Basophils were then activated either with anti-FcεRI mAb or with fMLP. To activate basophils using the anti-FcεRI mAb; 50 μL of whole blood was mixed with 110 μL of stimulation buffer (B-BAT-STB) and 20 μl of anti-FcεRI (B-BAT-STCON). To activate basophils with fMLP; 50 μL of whole blood was mixed with 80 μL of stimulation buffer (B-BAT-STB) and 50 μL of fMLP (B-CCR-FMLP). Stimulation buffer was used as a negative control. 20 μL of the staining reagent (combination of anti-human CD63-FITC and anti-human CCR3-PE mAbs) was then added to each tube. The tubes were mixed gently and incubated for 25 minutes at 37° C. Subsequently, erythrocytes were lysed and fixed by the addition of 2 mL of lysing solution (B-BAT-LYR) for 10 minutes at room temperature. Cells were pelleted by centrifugation at 1200 rpm for 10 minutes at room temperature in a swing-out rotor. Supernatant was aspirated and cell pellet resuspended in 400 μL of wash buffer. Flow cytometric analysis of the basophil activation was performed on a FC500MPL flow cytometer (Beckman Coulter Inc., Fullerton, Calif.). CCR3-staining and side scatter were applied to gate at least 200 basophils that expressed a high density of CCR3. The percent CD63 positive cells within the gated basophil population were determined in different treatment groups and normalized to the vehicle control (0.3% DMSO) with anti-FcεRI mAb of fMLP stimulus as 100%. Final compound concentration was adjusted to correct for dilution effect of added reagents. The EC50 values were calculated from the analysis of the dose-response curves to a four-parameter equation.
# [1] = Hepatocyte stability (parent drug disappearance in cryopreserved hepatocytes); format: in vitro ADME, human; details: human, human hepatocytes
# Description: This assay was used to evaluate the metabolic stability of test articles (TA) following incubation in cryopreserved hepatocytes by monitoring parent drug disappearance via LC/MC. The TA was incubated with 1 million hepatocytes/mL at 2 μM substrate in duplicate. The incubation was carried out at 37° C. with 5% CO2 and saturating humidity. Samples were taken at 0, 1, 2, and 4 hours to monitor the disappearance of TA and a half-life (t1/2) was determined. Table 3 below summarizes the human hepatocyte t1/2 values (hours) collected in the Example.
# PI3Kδ = PI3Kδ (Homo sapiens (Human), UniProt O00329); assay: Enzymatic activity of PI3K isoforms, TR-FRET assay (PI3Kδ); format: biochemical; details: 2× Km ATP, geometric mean if more than one value
# Description: Enzymatic activity of the class I PI3K isoforms in the presence of the compounds of Table 1 and Compounds X, Y and Z was measured using a time-resolved fluorescence resonance energy transfer (TR-FRET) assay. The TR-FRET assay was used to monitor formation of the product 3,4,5-inositol triphosphate molecule (PIP3) as it competed with fluorescently labeled PIP3 for binding to the GRP-1 pleckstrin homology domain protein. An increase in […] product results in a decrease in TR-FRET signal as the labeled fluorophore is displaced from the GRP-1 protein binding site.
# Class I PI3K isoforms were expressed and purified as heterodimeric recombinant proteins. All assay reagents and buffers for the TR-FRET assay were purchased from Millipore. PI3K isoforms were assayed under initial rate conditions in the presence of 25 mM Hepes (pH 7.4), and 2× Km ATP (75-500 μM), 2 μM PIP2, 5% glycerol, 5 mM MgCl2, 50 mM NaCl, 0.05% (v/v) Chaps, 1 mM dithiothreitol, 1% (v/v) DMSO at the following concentrations for each isoforms: PI3Kα, PI3Kβ, and PI3Kδ between 25 and 50 pM, and PI3Kγ at 2 nM. After an assay reaction time of 30 minutes at 25° C., reactions were terminated with a final concentration of 10 mM EDTA, 10 nM labeled-PIP3, and 35 nM Europium labeled GRP-1 detector protein before reading TR-FRET on an Envision plate reader (Ex: 340 nm; Em: 615/665 nm; […] delay and 500 μs read window).
# Data were normalized based on positive ([…] wortmanin) and negative (DMSO) controls. α, β, δ, and γ IC50 values were calculated from the fit of the dose-response curves to a four-parameter equation. All IC50 values represent geometric mean values if more than one value was obtained. IC50 values were reported in units of nM.
# [2] = cryopreserved human hepatocytes, class symbol, 2 μM substrate, 37° C.
# [3] = cryopreserved human hepatocytes, 2 μM substrate, 37° C., Table 3
# [4] = Homo sapiens, class symbol, human whole blood, basophils activated with anti-FcεRI mAb or fMLP, percent CD63 positive cells
# [5] = Homo sapiens, human whole blood, basophils activated with anti-FcεRI mAb or fMLP, percent CD63 positive cells, geometric mean
# [6] = Homo sapiens, basophil activation in human whole blood, comparison Table 4
# [7] = cryopreserved hepatocytes, comparison Table 4
# Chain of PI3Kδ (O00329 whole entry, the tested form may be a part, canonical isoform): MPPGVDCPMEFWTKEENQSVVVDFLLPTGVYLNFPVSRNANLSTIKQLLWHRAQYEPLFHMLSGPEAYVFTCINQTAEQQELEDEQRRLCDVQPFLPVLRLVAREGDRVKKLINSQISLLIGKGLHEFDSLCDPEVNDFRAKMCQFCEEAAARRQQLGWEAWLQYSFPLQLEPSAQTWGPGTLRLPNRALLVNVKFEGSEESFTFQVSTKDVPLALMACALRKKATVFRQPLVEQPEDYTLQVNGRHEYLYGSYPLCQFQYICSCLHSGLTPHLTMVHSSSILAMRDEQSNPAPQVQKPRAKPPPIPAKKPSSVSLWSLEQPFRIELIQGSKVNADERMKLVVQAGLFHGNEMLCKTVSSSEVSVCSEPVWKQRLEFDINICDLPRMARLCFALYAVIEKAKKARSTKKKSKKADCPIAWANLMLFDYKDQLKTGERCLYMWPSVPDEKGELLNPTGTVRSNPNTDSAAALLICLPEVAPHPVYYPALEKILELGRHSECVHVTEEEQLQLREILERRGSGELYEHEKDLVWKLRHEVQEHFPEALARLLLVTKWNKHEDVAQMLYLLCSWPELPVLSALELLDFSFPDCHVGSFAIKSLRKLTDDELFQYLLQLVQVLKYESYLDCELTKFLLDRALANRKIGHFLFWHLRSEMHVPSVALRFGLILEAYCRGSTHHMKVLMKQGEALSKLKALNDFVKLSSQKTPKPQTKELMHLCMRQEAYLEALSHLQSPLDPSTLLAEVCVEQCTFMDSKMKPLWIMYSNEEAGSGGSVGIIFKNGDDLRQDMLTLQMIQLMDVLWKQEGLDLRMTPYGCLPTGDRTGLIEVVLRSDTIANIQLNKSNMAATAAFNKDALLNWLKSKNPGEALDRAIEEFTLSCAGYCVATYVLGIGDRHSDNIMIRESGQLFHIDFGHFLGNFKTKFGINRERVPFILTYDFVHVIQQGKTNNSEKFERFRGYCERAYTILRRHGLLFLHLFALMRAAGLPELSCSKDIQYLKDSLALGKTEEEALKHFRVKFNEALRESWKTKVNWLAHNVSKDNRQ
# Chain of PI3Kδ (P27986 whole entry partner, the tested form may be a part, canonical isoform): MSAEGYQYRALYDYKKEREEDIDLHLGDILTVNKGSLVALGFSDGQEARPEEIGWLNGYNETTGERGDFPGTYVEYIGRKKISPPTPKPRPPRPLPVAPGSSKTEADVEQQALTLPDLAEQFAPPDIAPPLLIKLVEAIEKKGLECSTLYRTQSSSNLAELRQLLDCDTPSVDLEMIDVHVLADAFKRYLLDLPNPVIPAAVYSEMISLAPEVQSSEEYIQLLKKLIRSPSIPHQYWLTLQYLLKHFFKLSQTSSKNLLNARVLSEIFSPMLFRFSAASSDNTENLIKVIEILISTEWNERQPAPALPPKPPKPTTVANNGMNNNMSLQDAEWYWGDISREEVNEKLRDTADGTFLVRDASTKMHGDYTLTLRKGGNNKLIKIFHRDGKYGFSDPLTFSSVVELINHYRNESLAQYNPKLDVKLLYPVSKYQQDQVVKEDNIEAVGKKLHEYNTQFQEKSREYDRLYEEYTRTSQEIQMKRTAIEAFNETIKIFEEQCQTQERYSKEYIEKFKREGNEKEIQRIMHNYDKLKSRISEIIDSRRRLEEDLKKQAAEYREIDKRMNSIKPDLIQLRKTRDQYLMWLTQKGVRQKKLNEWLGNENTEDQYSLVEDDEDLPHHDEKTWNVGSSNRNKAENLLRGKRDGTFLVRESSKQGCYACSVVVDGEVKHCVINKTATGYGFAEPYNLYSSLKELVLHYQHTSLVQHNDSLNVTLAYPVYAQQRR
Structure (SMILES),IC50 (PI3Kδ),EC50 (basophils; [4]),EC50 (basophils; [5]),further results
"Cc1ncccc1-n1c([C@H](C)Nc2nc(N)nc(N)c2C#N)nc2cccc(Cl)c2c1=O (atropisomer, axis not shown) [Compound 39, (S)-2,4-diamino-6-(1-(5-chloro-3-(2-methylpyridin-3-yl)-4-oxo-3,4-dihydroquinazolin-2-yl)ethylamino)pyrimidine-5-carbonitrile]",1 nM,,,"EC50 (basophils; class symbol, human whole blood, basophils activated with anti-FcεRI mAb or fMLP, percent CD63 positive cells): 1 to 10 nM; EC50 (basophils; human whole blood, basophils activated with anti-FcεRI mAb or fMLP, percent CD63 positive cells, geometric mean): 2 nM; half-life at 2 μM [1, 2]: 3 to 6 h; half-life at 2 μM [1, 3]: 3 h"
"Cc1c(F)cncc1-n1c([C@H](C)Nc2nc(N)nc(N)c2C#N)nc2cccc(Cl)c2c1=O (atropisomer, axis not shown) [Compound 46, (S)-2,4-diamino-6-(1-(5-chloro-3-(5-fluoro-4-methylpyridin-3-yl)-4-oxo-3,4-dihydroquinazolin-2-yl)ethylamino)pyrimidine-5-carbonitrile]",38 nM,,,"half-life at 2 μM [1, 2]: 6 to 10 h; half-life at 2 μM [1, 3]: 8 h"
"N#Cc1c(N)nc(N)nc1N[C@@H](CC1CC1)c1nc2cccc(Cl)c2c(=O)n1-c1cccnc1 [Compound 4, (S)-2,4-diamino-6-(1-(5-chloro-4-oxo-3-(pyridin-3-yl)-3,4-dihydroquinazolin-2-yl)-2-cyclopropylethylamino)pyrimidine-5-carbonitrile]",5 nM,10 to 50 nM,22 nM,
"Cc1cccc2nc([C@H](C)Nc3nc(N)nc(N)c3C#N)n(-c3cccnc3)c(=O)c12 [Compound 7, (S)-2,4-diamino-6-(1-(5-methyl-4-oxo-3-(pyridin-3-yl)-3,4-dihydroquinazolin-2-yl)ethylamino)pyrimidine-5-carbonitrile]",0.4 nM,< 1 nM,0.3 nM,
"C[C@H](Nc1nc(N)nc(N)c1C#N)c1nc2cccc(S(C)(=O)=O)c2c(=O)n1-c1cccnc1 [Compound 8, (S)-2,4-diamino-6-(1-(5-(methylsulfonyl)-4-oxo-3-(pyridin-3-yl)-3,4-dihydroquinazolin-2-yl)ethylamino)pyrimidine-5-carbonitrile]",9 nM,> 50 nM,100 nM,
"C[C@H](Nc1nc(N)nc(N)c1C#N)c1nc2cccc(C#N)c2c(=O)n1-c1cccnc1 [Compound 10, (S)-2-(1-((2,6-diamino-5-cyanopyrimidin-4-yl)amino)ethyl)-4-oxo-3-(pyridin-3-yl)-3,4-dihydroquinazoline-5-carbonitrile]",9 nM,10 to 50 nM,17 nM,
"C[C@H](Nc1nc(N)nc(N)c1C#N)c1nc2cccc(Cl)c2c(=O)n1-c1cncc(Cl)c1 [Compound 13, (S)-2,4-diamino-6-(1-(5-chloro-3-(5-chloropyridin-3-yl)-4-oxo-3,4-dihydroquinazolin-2-yl)ethylamino)pyrimidine-5-carbonitrile]",8 nM,1 to 10 nM,4 nM,
"Cc1cncc(-n2c([C@H](C)Nc3nc(N)nc(N)c3C#N)nc3cccc(Cl)c3c2=O)c1 [Compound 16, (S)-2,4-diamino-6-(1-(5-chloro-3-(5-methylpyridin-3-yl)-4-oxo-3,4-dihydroquinazolin-2-yl)ethylamino)pyrimidine-5-carbonitrile]",1 nM,< 1 nM,0.7 nM,
"Cc1cncc(-n2c([C@@H](Nc3nc(N)nc(N)c3C#N)C3CC3)nc3cccc(Cl)c3c2=O)c1 [Compound 17, (S)-2,4-diamino-6-((5-chloro-3-(5-methylpyridin-3-yl)-4-oxo-3,4-dihydroquinazolin-2-yl)(cyclopropyl)methylamino)pyrimidine-5-carbonitrile]",4 nM,1 to 10 nM,5 nM,
"C[C@H](Nc1nc(N)nc(N)c1C#N)c1nc2cccc(Cl)c2c(=O)n1-c1cncc(C(F)(F)F)c1 [Compound 18, (S)-2,4-diamino-6-(1-(5-chloro-4-oxo-3-(5-(trifluoromethyl)pyridin-3-yl)-3,4-dihydroquinazolin-2-yl)ethylamino)pyrimidine-5-carbonitrile]",18 nM,10 to 50 nM,22 nM,
"C[C@H](Nc1nc(N)nc(N)c1C#N)c1nc2c(F)ccc(F)c2c(=O)n1-c1cccnc1 [Compound 25, (S)-2,4-diamino-6-(1-(5,8-difluoro-4-oxo-3-(pyridin-3-yl)-3,4-dihydroquinazolin-2-yl)ethylamino)pyrimidine-5-carbonitrile]",8 nM,10 to 50 nM,11 nM,
"C[C@H](Nc1nc(N)nc(N)c1C#N)c1nc2c(F)ccc(C#N)c2c(=O)n1-c1cccnc1 [Compound 34, (S)-2-(1-((2,6-diamino-5-cyanopyrimidin-4-yl)amino)ethyl)-8-fluoro-4-oxo-3-(pyridin-3-yl)-3,4-dihydroquinazoline-5-carbonitrile]",21 nM,10 to 50 nM,22 nM,
"CC[C@H](Nc1nc(N)nc(N)c1C#N)c1nc2c(F)ccc(C#N)c2c(=O)n1-c1cccnc1 [Compound 35, (S)-2-(1-((2,6-diamino-5-cyanopyrimidin-4-yl)amino)propyl)-8-fluoro-4-oxo-3-(pyridin-3-yl)-3,4-dihydroquinazoline-5-carbonitrile]",35 nM,> 50 nM,62 nM,
"C[C@H](Nc1nc(N)nc(N)c1C#N)c1nc2ccc(F)c(Cl)c2c(=O)n1-c1cccnc1 [Compound 36, (S)-2,4-diamino-6-(1-(5-chloro-6-fluoro-4-oxo-3-(pyridin-3-yl)-3,4-dihydroquinazolin-2-yl)ethylamino)pyrimidine-5-carbonitrile]",4 nM,1 to 10 nM,2 nM,
"N#Cc1c(N)nc(N)nc1N[C@H](c1nc2ccc(F)c(Cl)c2c(=O)n1-c1cccnc1)C1CC1 [Compound 37, (S)-2,4-diamino-6-((5-chloro-6-fluoro-4-oxo-3-(pyridin-3-yl)-3,4-dihydroquinazolin-2-yl)(cyclopropyl)methylamino)pyrimidine-5-carbonitrile]",5 nM,10 to 50 nM,16 nM,
"C[C@H](Nc1ncnc2[nH]cnc12)c1nc2cccc(Cl)c2c(=O)n1-c1ccccc1 [Compound X, reference compound]",,,,"EC50 (basophils; [6]): > 5 nM; half-life at 2 μM [1, 7]: < 2 h"
"C[C@H](Nc1ncnc(N)c1C#N)c1nc2cccc(Cl)c2c(=O)n1-c1ccccc1 [Compound Y, reference compound]",,,,"EC50 (basophils; [6]): > 10 nM; half-life at 2 μM [1, 7]: < 2 h"
"C[C@H](Nc1nc(N)nc(N)c1C#N)c1nc2cccc(Cl)c2c(=O)n1-c1ccccc1 [Compound Z, reference compound]",,,,"EC50 (basophils; basophil activation in human whole blood, comparison Table 4): < 1 nM; half-life at 2 μM [1, 7]: < 5 h"
